“And” between values parts separate entries of the source, which are not always exact repeats. Equal entries are not always repeated.
Assays:
[1] = target: 5-hydroxytryptamine receptor 2A (Rattus norvegicus, UniProt P14842); test: Ray2010 Assay 25
Text: ketanserin cloned PDSP web; .

[2] = target: T1, 5-hydroxytryptamine receptor 1A (Homo sapiens, UniProt P08908); test: Ray2010 Assay 28
T1 sequence (P08908 whole entry): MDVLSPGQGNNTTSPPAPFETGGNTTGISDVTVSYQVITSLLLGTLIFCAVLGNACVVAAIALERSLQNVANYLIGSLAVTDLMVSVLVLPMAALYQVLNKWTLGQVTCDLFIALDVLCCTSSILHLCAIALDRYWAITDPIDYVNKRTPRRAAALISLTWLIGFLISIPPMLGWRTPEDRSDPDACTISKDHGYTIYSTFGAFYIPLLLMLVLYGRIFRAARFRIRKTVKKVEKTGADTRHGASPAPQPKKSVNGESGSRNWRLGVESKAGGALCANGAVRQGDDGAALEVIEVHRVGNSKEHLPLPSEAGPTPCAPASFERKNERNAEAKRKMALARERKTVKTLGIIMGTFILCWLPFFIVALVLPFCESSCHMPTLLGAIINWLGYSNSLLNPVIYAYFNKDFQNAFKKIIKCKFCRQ
Text: 8-oh-dpat cloned PDSP web; .

[3] = target: 5-hydroxytryptamine receptor 1D (UniProt F1MMU1); test: Ray2010 Assay 30
Text: 5-HT caudate .

D(2) dopamine receptor = D(2) dopamine receptor (Homo sapiens, UniProt P14416); test: Ray2010 Assay 32
Text: YM 09191-2 cloned PDSP web; .

D(3) dopamine receptor = D(3) dopamine receptor (Bos taurus, UniProt F1N454); test: Ray2010 Assay 33
Text: 7-OH-DPAT caudate .

D(4) dopamine receptor = target: T2, D(4) dopamine receptor (Homo sapiens, UniProt P21917); test: Ray2010 Assay 34
T2 sequence (P21917 whole entry): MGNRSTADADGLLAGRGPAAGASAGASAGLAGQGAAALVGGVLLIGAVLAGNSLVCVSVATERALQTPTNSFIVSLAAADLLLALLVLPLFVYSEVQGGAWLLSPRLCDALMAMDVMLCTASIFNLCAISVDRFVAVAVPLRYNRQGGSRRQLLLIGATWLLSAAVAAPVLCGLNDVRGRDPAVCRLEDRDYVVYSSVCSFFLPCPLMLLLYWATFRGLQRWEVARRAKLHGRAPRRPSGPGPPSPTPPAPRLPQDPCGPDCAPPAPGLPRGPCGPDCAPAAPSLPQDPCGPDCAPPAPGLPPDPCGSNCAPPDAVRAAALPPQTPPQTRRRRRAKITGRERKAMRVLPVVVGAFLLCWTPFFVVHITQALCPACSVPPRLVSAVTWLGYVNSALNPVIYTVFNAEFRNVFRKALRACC
Text: spiperone cloned .

[4] = target: Beta-1 adrenergic receptor (Rattus norvegicus, UniProt P18090); test: Ray2010 Assay 35
Text: dihydro-alprenalol HCL cortex .

[5] = target: Sigma non-opioid intracellular receptor 1 (Cavia porcellus, UniProt Q60492); test: Ray2010 Assay 39
Text: (+)-pentazocine brain Mach et al.1995.

[6] = target: Sigma non-opioid intracellular receptor 1 (UniProt Q58DH7); test: Ray2010 Assay 40
Text: (+)-pentazocine caudate .

[7] = target: Sigma intracellular receptor 2 (Rattus norvegicus, UniProt Q5U3Y7); test: Ray2010 Assay 42
Text: DTG liver .

[8] = target: Muscarinic acetylcholine receptor (UniProt F1N5C5); test: Ray2010 Assay 45
Text: pirenzepine hippocampus .

[9] = target: Muscarinic acetylcholine receptor M1 (Rattus norvegicus, UniProt P08482); test: Ray2010 Assay 47
Text: pirenzepine forebrain .

[10] = target: T3, Muscarinic acetylcholine receptor M2 (Rattus norvegicus, UniProt P10980); test: Ray2010 Assay 48
Text: (§1) N-methylacoblamine forebrain .

[11] = target: Muscarinic acetylcholine receptor M3 (Rattus norvegicus, UniProt P08483); test: Ray2010 Assay 48
Text: as §1

[12] = target: Muscarinic acetylcholine receptor M2 (Bos taurus, UniProt P41985); test: Ray2010 Assay 49
Text: QBN cortex .

[13] = target: T3, Muscarinic acetylcholine receptor M2; test: Ray2010 Assay 50
Text: AF-DX384 forebrain .

Mu-type opioid receptor = Mu-type opioid receptor (Bos taurus, UniProt P79350); test: Ray2010 Assay 55
Text: DAGO cortex .

[14] = target: T4, Glutamate receptor ionotropic, NMDA 2D (Rattus norvegicus, UniProt Q62645); test: Ray2010 Assay 62
Text: MK-801 hippocampus .

[15] = target: T4, Glutamate receptor ionotropic, NMDA 2D; test: Ray2010 Assay 65
Text: MK-801 spinal cord .

[16] = target: T4, Glutamate receptor ionotropic, NMDA 2D; test: Ray2010 Assay 66
Text: MK-801 midbrain .

[17] = target: T4, Glutamate receptor ionotropic, NMDA 2D; test: Ray2010 Assay 67
Text: MK-801 cerebellum .

[18] = target: T4, Glutamate receptor ionotropic, NMDA 2D; test: Ray2010 Assay 68
Text: MK-801 basal forebrain .

[19] = target: T4, Glutamate receptor ionotropic, NMDA 2D; test: Ray2010 Assay 69
Text: dizocilpine forebrain .

[20] = target: Gamma-aminobutyric acid receptor subunit alpha-1 (Bos taurus, UniProt P08219); test: Ray2010 Assay 70
Text: muscimol cortex .

[21] = target: Alpha-2B adrenergic receptor (Homo sapiens, UniProt P18089); test: Ray2010 Assay 74
Text: (§2) Table S2 shows raw Ki data for the current study combined with data collected from the literature for the ten additional compounds.

[22] = target: Neuronal acetylcholine receptor subunit alpha-2/beta-4 (Homo sapiens, UniProt Q15822+P30926); test: Ray2010 Assay 74
Text: as §2

[23] = target: Neuronal acetylcholine receptor subunit alpha-4/beta-2 (Homo sapiens, UniProt P43681+P17787); test: Ray2010 Assay 74
Text: as §2

[24] = target: Neuronal acetylcholine receptor subunit alpha-4/beta-4 (Homo sapiens, UniProt P43681+P30926); test: Ray2010 Assay 74
Text: as §2

T4 sequence (Q62645 whole entry): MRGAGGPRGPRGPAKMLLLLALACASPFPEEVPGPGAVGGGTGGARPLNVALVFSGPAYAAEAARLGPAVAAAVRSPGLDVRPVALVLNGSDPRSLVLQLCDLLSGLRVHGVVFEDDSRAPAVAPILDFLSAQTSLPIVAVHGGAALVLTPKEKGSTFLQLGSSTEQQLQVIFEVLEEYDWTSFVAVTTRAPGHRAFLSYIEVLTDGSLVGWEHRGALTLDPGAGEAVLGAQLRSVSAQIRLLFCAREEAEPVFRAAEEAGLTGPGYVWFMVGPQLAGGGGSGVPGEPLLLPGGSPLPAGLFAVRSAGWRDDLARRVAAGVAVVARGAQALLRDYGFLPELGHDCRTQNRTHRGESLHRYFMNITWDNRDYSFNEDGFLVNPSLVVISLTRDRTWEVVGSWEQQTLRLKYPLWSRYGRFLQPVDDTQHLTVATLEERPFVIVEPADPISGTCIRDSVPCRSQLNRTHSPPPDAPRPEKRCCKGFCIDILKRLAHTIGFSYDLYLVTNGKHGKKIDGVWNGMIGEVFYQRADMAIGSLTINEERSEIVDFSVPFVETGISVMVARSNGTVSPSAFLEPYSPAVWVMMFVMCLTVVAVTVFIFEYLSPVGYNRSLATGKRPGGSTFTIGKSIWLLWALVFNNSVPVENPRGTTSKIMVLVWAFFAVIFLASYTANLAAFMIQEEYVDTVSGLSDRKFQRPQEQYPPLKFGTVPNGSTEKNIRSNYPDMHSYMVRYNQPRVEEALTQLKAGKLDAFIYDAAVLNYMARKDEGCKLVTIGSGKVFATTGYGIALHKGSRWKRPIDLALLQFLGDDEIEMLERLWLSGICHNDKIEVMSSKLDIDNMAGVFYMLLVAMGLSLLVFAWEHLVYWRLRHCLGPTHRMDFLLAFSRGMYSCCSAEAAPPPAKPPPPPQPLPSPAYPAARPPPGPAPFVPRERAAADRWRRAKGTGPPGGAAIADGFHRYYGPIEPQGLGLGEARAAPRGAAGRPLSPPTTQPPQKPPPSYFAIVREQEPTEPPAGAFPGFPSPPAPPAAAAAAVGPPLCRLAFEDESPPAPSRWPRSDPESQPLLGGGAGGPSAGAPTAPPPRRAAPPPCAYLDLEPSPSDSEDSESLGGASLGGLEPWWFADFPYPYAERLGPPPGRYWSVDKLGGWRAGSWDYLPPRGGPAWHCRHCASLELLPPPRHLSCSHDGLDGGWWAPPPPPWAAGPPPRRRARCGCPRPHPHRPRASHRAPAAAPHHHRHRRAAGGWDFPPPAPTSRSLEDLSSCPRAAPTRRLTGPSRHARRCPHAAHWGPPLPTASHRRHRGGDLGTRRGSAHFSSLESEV
Sequence of Mu-type opioid receptor (P79350 whole entry): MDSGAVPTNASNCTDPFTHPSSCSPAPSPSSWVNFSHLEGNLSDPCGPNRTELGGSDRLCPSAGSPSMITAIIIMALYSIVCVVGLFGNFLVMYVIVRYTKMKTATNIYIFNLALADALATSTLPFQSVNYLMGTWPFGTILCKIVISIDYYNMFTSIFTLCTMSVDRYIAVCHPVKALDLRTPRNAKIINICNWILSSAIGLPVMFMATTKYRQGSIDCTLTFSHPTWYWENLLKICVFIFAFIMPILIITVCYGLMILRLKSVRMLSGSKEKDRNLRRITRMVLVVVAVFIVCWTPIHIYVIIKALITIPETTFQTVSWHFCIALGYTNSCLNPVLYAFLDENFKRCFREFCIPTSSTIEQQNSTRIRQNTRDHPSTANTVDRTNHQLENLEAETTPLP
T3 sequence (P10980 whole entry): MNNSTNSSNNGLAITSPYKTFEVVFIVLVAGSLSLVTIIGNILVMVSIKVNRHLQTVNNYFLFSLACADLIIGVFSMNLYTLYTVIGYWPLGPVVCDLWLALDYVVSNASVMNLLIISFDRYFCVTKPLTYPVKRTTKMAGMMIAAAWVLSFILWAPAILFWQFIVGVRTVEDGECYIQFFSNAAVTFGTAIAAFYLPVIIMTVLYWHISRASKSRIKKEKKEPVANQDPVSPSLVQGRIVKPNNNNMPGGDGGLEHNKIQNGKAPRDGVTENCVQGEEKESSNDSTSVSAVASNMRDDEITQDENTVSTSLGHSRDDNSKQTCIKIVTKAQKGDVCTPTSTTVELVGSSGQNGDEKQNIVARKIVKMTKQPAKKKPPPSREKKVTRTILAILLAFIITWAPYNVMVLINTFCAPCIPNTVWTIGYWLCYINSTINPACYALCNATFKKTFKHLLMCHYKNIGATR
Sequence of Beta-1 adrenergic receptor (P18090 whole entry): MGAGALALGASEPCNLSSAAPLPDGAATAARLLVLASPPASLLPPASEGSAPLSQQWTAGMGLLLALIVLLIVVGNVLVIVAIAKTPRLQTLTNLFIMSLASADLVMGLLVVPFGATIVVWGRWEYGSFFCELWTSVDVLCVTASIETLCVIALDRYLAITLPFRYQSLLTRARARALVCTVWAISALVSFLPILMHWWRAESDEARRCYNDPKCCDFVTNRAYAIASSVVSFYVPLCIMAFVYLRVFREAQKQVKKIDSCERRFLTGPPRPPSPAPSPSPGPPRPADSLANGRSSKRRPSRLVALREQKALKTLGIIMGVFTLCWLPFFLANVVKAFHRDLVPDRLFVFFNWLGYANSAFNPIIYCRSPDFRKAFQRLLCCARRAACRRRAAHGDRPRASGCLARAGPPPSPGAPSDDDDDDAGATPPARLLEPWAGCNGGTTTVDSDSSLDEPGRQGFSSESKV
Sequence of Sigma intracellular receptor 2 (Q5U3Y7 whole entry): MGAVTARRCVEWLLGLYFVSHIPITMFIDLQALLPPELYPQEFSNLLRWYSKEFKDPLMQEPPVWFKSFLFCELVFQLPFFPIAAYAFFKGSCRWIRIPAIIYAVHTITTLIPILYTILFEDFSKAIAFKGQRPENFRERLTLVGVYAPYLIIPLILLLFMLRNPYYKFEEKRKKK
Sequence of Sigma non-opioid intracellular receptor 1 (Cavia porcellus, UniProt Q60492) (Q60492 whole entry): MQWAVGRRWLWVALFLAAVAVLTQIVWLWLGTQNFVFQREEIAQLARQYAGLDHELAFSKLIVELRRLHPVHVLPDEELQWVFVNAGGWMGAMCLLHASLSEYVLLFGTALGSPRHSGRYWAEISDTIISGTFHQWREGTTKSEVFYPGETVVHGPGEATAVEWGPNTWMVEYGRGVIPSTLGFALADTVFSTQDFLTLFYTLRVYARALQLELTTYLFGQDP
Sequence of Neuronal acetylcholine receptor subunit alpha-4/beta-2 (P43681 whole entry): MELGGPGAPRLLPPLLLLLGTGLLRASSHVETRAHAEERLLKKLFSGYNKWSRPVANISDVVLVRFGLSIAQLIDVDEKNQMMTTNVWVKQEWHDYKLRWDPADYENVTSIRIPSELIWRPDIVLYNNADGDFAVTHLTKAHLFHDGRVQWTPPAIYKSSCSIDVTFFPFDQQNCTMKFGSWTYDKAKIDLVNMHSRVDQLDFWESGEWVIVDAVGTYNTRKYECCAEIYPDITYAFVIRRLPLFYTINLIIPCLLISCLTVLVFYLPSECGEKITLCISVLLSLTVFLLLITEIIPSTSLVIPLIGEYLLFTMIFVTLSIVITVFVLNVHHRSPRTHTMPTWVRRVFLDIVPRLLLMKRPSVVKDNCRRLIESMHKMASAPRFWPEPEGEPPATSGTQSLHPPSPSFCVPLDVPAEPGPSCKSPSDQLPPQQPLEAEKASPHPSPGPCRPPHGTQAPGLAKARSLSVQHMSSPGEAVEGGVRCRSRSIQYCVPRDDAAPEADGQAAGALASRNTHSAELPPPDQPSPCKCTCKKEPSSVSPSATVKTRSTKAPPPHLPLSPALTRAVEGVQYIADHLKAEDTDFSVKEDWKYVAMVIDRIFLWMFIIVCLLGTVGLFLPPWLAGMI
Sequence of Neuronal acetylcholine receptor subunit alpha-4/beta-2 (P17787 whole entry): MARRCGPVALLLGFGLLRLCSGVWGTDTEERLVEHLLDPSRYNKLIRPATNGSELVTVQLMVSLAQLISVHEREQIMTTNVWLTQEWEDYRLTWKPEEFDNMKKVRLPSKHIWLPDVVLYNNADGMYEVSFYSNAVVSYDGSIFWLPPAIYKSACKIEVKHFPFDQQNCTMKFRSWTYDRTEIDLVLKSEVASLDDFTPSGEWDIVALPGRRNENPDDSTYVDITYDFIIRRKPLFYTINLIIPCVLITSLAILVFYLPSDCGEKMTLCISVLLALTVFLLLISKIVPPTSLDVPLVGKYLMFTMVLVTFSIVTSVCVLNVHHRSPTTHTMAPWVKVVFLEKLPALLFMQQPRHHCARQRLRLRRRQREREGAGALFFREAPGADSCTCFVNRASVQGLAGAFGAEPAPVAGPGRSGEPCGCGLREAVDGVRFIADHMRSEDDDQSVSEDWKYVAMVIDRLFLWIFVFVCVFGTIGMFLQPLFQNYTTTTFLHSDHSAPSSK
Sequence of Neuronal acetylcholine receptor subunit alpha-4/beta-4 (P43681 whole entry): as the sequence (P43681 whole entry) above
Sequence of Neuronal acetylcholine receptor subunit alpha-4/beta-4 (P30926 whole entry): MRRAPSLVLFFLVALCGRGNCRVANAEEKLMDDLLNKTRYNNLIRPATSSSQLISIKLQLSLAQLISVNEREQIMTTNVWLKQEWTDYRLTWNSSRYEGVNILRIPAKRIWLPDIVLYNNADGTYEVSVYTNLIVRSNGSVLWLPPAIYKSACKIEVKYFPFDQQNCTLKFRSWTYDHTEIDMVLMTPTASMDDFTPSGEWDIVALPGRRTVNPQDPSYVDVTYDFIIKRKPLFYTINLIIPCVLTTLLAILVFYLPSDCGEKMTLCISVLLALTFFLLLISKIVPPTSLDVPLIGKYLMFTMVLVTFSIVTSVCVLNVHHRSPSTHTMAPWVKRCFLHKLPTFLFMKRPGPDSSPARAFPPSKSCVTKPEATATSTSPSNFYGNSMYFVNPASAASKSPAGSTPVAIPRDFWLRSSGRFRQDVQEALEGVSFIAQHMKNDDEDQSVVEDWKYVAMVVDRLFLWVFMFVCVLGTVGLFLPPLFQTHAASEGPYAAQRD
Sequence of Sigma non-opioid intracellular receptor 1 (UniProt Q58DH7) (Q58DH7 whole entry): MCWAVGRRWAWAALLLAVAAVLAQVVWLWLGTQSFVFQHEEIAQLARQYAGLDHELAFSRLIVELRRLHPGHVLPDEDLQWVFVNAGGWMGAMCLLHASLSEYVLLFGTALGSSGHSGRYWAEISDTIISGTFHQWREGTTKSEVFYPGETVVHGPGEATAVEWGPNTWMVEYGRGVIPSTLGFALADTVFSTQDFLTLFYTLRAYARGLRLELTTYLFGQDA

CC[C@H]1C[C@@H]2C[C@H]3c4[nH]c5ccc(OC)cc5c4CCN(C2)[C@@H]13
Ki [1]: > 10 µM | Ki [2]: > 10 µM | Ki [3]: > 100 µM | Ki (D(2) dopamine receptor): > 10 µM | Ki (D(3) dopamine receptor): 70 µM | IC50 (D(4) dopamine receptor): > 100 µM | Ki [4]: > 100 µM | Ki [5]: 9.31 µM | Ki [6]: 2.5 µM | Ki [7]: 0.0904 µM | Ki [8]: 31.6 µM | IC50 [9]: 7.6 µM | Ki [10]: 50.1 µM | Ki [11]: 12.5 µM | Ki [12]: 31 µM | IC50 [13]: 5.9 µM | Ki (Mu-type opioid receptor): 11 µM and 2 µM | Ki [14]: 1.19 µM | Ki [15]: 2.22 µM | Ki [16]: 2.46 µM | Ki [17]: 3.31 µM | Ki [18]: 3.9 µM | IC50 [19]: 3.2 µM | Ki [20]: > 100 µM

CAS_82830-44-2::(2R)-1-(4-iodo-2,5-dimethoxyphenyl)propan-2-amine::DOI,(-)::US20250270173, Compound DOI
Ki [21]: 0.34 µM | Ki [22]: > 10 µM | Ki [23]: > 10 µM | Ki [24]: > 10 µM

— BindingDB's records for PubMed 20126400 (University of Oklahoma, 2010)
